Experimental data: US8389739B1, “Modulators of retinoid-related orphan receptor gamma” (Orphagen Pharmaceuticals, priority 2006, dated 2013)
Blank lines part the entries; values can stand above or below the molecule they belong to.

Experiments:
[1] = system: IL-17 release from CD4+ naïve murine T cells; assay: IL-17 release into culture medium during TH-17 differentiation (ELISA); assay type: cell-based, mouse; details: 3 μM, in the presence or absence of 3 μM OR-12872, day 4 (FIG. 10)
Protocol: FIG. 10. IL-17 release into culture medium was measured four days after induction of TH-17 differentiation in CD4^+ naïve murine T cells, following the methods of FIG. 7. Each antagonist (OR-885, OR-1050, OR-13571, and OR-2161) was incubated in the cultures at 3 μM, in the presence or absence of OR-12872, also at 3 μM. On day 4, culture supernatants were saved and IL-17 measured by ELISA.
Purified CD4^+CD62L^+ T cells were plated in 24-well plates with 2−4×10^5 cells in 700 ul volume of RPMI 1640 media containing 10% heat-inactivated FCS, 100 IU penicillin, 100 μg/ml streptomycin, 1× non-essential amino acids, 1 mM pyruvate, 2 mM glutamine, and 50 μM […] (Veldhoen, Hocking et al. 2006). T cells were stimulated with exogenous cytokines and anti-CD3/anti-CD28 conjugated Dynabeads (Dynal Biotech, Oslo) at a 1:1 ratio of beads to cells. Exogenous cytokines used were: 4 ng/ml TGF-β, 20 ng/ml of IL-6, or 10 ng/ml IL-12. RORγ agonist and antagonist ligands, dissolved in DMSO, were added directly to cell cultures, to a final concentration of 0.01%. Cytokines and RORγ ligands were added immediately after cell plating.
ELISA kits for mouse IL-17 and human IL-17 were from eBioscience (San Diego, Calif.). ELISA assays were performed following the manufacturer's protocol. Certain samples were diluted 20-fold to avoid maximization of enzymatic signals. […]

EAE [2] = details: mouse, in vivo; cited from earlier work
liver triglyceridemia = details: mice lacking the LXRα and LXRβ receptors; cited from earlier work
liver triglycerides = assay: Liver triglycerides after oral dosing in C57BL/6 mice; assay type: in vivo
Protocol: […] A small piece of the liver (˜200 mg) was weighed and extracted to determine triglyceride content. Glycerol was liberated from liver triglycerides by hydrolysis in base. The liver fragment was incubated overnight at 55° C. in 0.35 mls of ethanolic KOH (2 parts EtOH: 1 part 30% KOH) in a closed tube. A solution of 50% ethanol in water was added to bring the volume of each tube to 1.0 ml. The solution was cleared of debris by centrifugation, and the resulting supernatant increased to 1.2 ml with further addition of 50% ethanol. Aqueous 1 M MgCl2 (215 μl) was added to 200 μl of the supernatant, and the mixture was cleared by centrifugation again after standing 10 min on ice. Glycerol levels were measured with the Sigma Free Glycerol Reagent (Sigma-Aldrich, St. Louis, Mo.) according to the manufacturer's instructions. The triglyceride concentration (in milligrams per gram of liver wet weight) was determined by assuming average molecular weight of 1000 daltons for each molecule of triglyceride.

thymocytes = assay: Thymus weight and thymocyte subpopulations after oral dosing in C57BL/6 mice; assay type: in vivo; details: mouse, in vivo, 100 mg/kg
Protocol: In addition, the total number and the fraction of the major thymocyte subpopulations including CD4^+CD8^+ (DP), CD4^+CD8^- (SP4^+) and CD4^-CD8^+ (SP8^+) were measured by cell surface staining followed by FACS analysis. […] The volume of cells was adjusted to 8 mls. Debris from the thymus was allowed to settle, and a 200 μl aliquot of cells was incubated with fluorescent antibodies to CD4 and CD8 for 15 minutes at room temperature. […] Before analytical flow cytometry was carried out (FACS Calibur, Becton Dickinson), Caltag counting beads (from Invitrogen) were added to allow absolute quantitation of cell number. Thymus subpopulations were determined after gating for live cells. […] Dexamethasone reproducibly induces rapid apoptosis of DP thymocytes and reduction of thymic mass ([…], Drupt et al. 2000; Zubkova, Mostowski et al. 2005).

EAE [3] = assay: EAE model, SJL/J mice immunized with PLP139-151, osmotic pump; assay type: in vivo
CIA = assay: Collagen-induced arthritis (CIA) in DBA/1 mice; assay type: in vivo; details: 100 mg/kg/day OR-1050 p.o. in HRC-6; AUC day 24 to 48, p<0.09
[4] = system: IL-17 release in lymph node cultures; assay: Lymph node cell cultures from MOG35-55 immunized C57BL/6 mice, IL-17 ELISA; assay type: cell-based; details: Mus musculus, 72 h; MOG and IL-23, 3 days, dose-response (FIG. 13F); read-out: EC50 for inhibition of IL-17 production
Protocol: FIGS. 13A-F. IL-17 levels in lymph node cells from mice immunized with myelin-derived peptides respond to cognate peptide antigens, IL-23 and RORγ ligands. (FIG. 13A) SJL/J mice were immunized by complete Freund's adjuvant (CFA) only or by Proteolipid Protein residues 139-151 (PLP139-151) emulsified in CFA. Lymph nodes were cultured for 3 days in with or without 40 μg/ml PLP in the presence or absence of OR-885. Culture media were analyzed by ELISA for IL-17. (FIGS. 13B-C) Lymph node cells from PLP-immunized SJL/J mice were cultured as before with the addition of 10 ng/ml IL-23 and 3 μM compounds. At the end of 1 day or 3 days in culture, Th-17 (CD4^+CD8^−IL17^+) cell frequency was measured by FACS (FIG. 13B) and compared to IL-17 levels in culture media (FIG. 13C). (FIGS. 13D-F) Lymph node cells from MOG35-55 immunized C57BL/6 mice were cultured for 3 days with 30 μg/ml MOG and/or 10 ng/ml IL-23. RORγ ligands were not added (FIG. 13D), or added at the beginning of the culture at a single concentration (FIG. 13E, 1 μM) or in multiple doses (FIG. 13F). […]
Overall, cultured lymph node cells that are stimulated with IL-23 and peptide antigens provide a model system to examine IL-17 production ex vivo (FIG. 13D). We analyzed a variety of RORγ ligands for their ability to regulate IL-17 (FIG. 13E). […] This potency is consistent with that measured in the CHO cell transcription assay.

Compound: COC(C)CCC(C)C1CCC2C3CC(O)C4CC(O)CCC4(C)C3CCC12C (centres unmarked) [OR-12872, 17-(4-Methoxy-1-methyl-pentyl)-10,13-dimethyl-hexadecahydro-cyclopenta[a]phenanthrene-3,6-diol]
- IL-17 release during TH-17 differentiation [1]: reverses the effect of each of the antagonists

Compound: O=S(=O)(c1ccccc1)N(CC(F)(F)F)c1ccc(C(O)(C(F)(F)F)C(F)(F)F)cc1 [Compound T0901317, N-(2,2,2-Trifluoro-ethyl)-N-[4-(2,2,2-trifluoro-1-hydroxy-1-trifluoromethyl-ethyl)-phenyl]-benzenesulfonamide, reference compound]
- development of murine EAE (EAE [2]): inhibit the development of murine EAE
- liver triglyceridemia (liver triglyceridemia): no effect on liver triglyceridemia

- Liver triglycerides (liver triglycerides; OR-1050 100 mg/kg (50 mg/kg twice per day by gavage, corn oil) for 7 days, vehicle 34.7 ± 5.7): 119.5 ± 18.8 mg/g
- liver triglycerides, in words (liver triglycerides; daily exposure to 100 mg/kg OR-1050, six day study): markedly elevated
- Frequency of DP (% of total cells) (thymocytes): 56.7 ± 3.1%
- Total cells per spleen (×10^−6) DP (thymocytes): 61.5 ×10^−6
- Total cells per spleen (×10^−6) SP4 (thymocytes): 8.1 ×10^−6
- Total cells per spleen (×10^−6) SP8 (thymocytes): 2.5 ×10^−6
Compound: CCN(c1ccc(C(O)(C(F)(F)F)C(F)(F)F)cc1)S(=O)(=O)c1ccc([N+](=O)[O-])cc1 [OR-1050, N-Ethyl-4-nitro-N-[4-(2,2,2-trifluoro-1-hydroxy-1-trifluoromethyl-ethyl)-phenyl]-benzenesulfonamide]
- paralytic severity, in words (EAE [3]; FIG. 11D): reduced paralytic severity
- day of onset, in words (EAE [3]; FIG. 11E): significantly delayed
- area under the severity curve (mean±sem) (EAE [3]; estimated 30 mg/kg daily, vehicle 14.5±1.6, p<0.01): 5.3±2.7
- disease course of CIA (hind limb clinical scores) (CIA): partly suppressed

Compound: C[C@@H]1CC[C@@]2(OC1)O[C@H]1C[C@H]3[C@@H]4CC[C@H]5C[C@@H](O)CC[C@]5(C)[C@H]4C[C@@H](O)[C@]3(C)[C@H]1[C@@H]2C [OR-885, 5α,20α, 22α, 25D-SPIROSTAN-3β, 12β-DIOL]
- EC50 [4]: ~200 nM
